The target in one experiment is trkA tyrosine kinase (Homo sapiens, UniProt P04629). To be noted: Maroney et al.; Kaneko et al.; cited from earlier work.
Experiment [1] deals with ciliary ganglion (CG) neurons. The experiment can be described thus: Survival of chick embryonic ciliary ganglion neurons. It counts as cell-based. How it is done: (§1) Paravertebral sympathetic ganglia (SG; embryonal day 12 (E12)), dorsal root ganglia (DRG;E9), and ciliary ganglia (CG;E8) were dissected from chick embryos at the indicated embryonic day as described in Lindsay, et al., Dev. Biol., 1985, 112, 319-328, which is incorporated herein by reference in its entirety. After trypsinization and dissociation, the nerve cell suspensions were plated onto polyomithine-laminin-coated culture dishes in Ham's F14 culture medium, supplemented with 10% horse serum. Immediately after plating, survival factors were added at the following concentrations: Nerve growth factor (NGF), 20 ng/ml; ciliary neutrophic factor (CNTF), 10 ng/ml. The cultures were maintained at 37° and 5% CO2 in a humidified environment.
(§2) Neurons were plated in 35 mm culture dishes with grids (Nunc). […] Cell survival was confirmed by vital staining with trypan blue (not shown).

The subject of a further experiment is IL-2. The experiment can be described thus: Induction of IL-2 in Jurkat cells by anti CD3 and anti CD28 antibodies (ELISA). It counts as cell-based. Conditions: Homo sapiens. Here is the method: Jurkat cells were grown in RPMI 1640 medium supplemented with 10% fetal bovine serum. TNF-α was from Promega and anti CD3 and anti CD28 antibodies were from Pharmigen. Jurkat experiments were done in 200 µl in a 96 well plate. IL-2 was measured with an ELISA kit purchased from Boehringer Mannheim. The antibodies to CD3 and CD28 were allowed to bind to the plastic of the 96 well plate (18 hr in PBS) prior to addition of the Jurkat Cells. Cells were treated with compounds 1 hr prior to adding to the antibody coated plate. Antibodies to CD3 and CD28 were used to activate the T cell receptor and induce IL-2. I1-2 was released from the Jurkat cells between 6 hr and 24 hr after initiation of induction (Fig. 23A). No IL-2 was made constitutively (Fig. 23A CNT). The effect of Compound III-3 (1 hr treatment with Compound III-3 prior to induction) on IL-2 induction was next assessed (Fig. 23B). A Compound III-3 concentration of 500 nM inhibited IL-2 induction by greater than 80% (Fig. 23B).

The test system of experiment [2] is intact embryonic dorsal root ganglia. The experiment is described as follows: Neurite outgrowth from intact dorsal root ganglia. It counts as cell-based, chick. Conditions: 250 nM Compound III-3 or 20 ng/ml NGF; 48 h. How it is done: Ganglia were placed in 96 well plates previously coated with poly-1-omithine and laminin (5 µg each/ml phosphate buffered saline) in serum-free N2 medium (Bottenstein, et al., Proc. Natl. Acad. Sci. USA, 1979, 76, 514-517, which is incorporated herein by reference in its entirety) containing 0.05% bovine serum albumin (BSA) and maintained for 48 h at 37° and 5% CO2 in a humidified environment. Treated ganglia received either 250 nM Compound III-3 or 20 ng/ml NGF 2 h after plating.

The target of the next experiment is T1, MEKK1 (Homo sapiens, UniProt Q13233).
T1 construct: expressed in transfected cells; host or cells: Cos7
The experiment can be described thus: JNK activity in Cos7 cells overexpressing HA-JNK1 with MEKK1. It counts as cell-based. To be noted: 500 nM; Cos7 cells overexpressing HA-JNK1 with MEKK1 (Figure 15C).

The next experiment concerns lumbar motor neurons. The experiment can be described thus: Developmentally regulated motor neuronal death in the chick embryo. It counts as in vivo. The source says: The present example is described in detail in Glicksman, et al., J. Neurobiol., 1998, 35, 361-370, which is incorporated herein by reference in its entirety. On E6, a window in the shell of chick eggs (Spafas, Preston, CT) was made and either vehicle (5% Solutol ™ HS 15, polyethylene glycol 660 hydroxysterate; BASF Aktiengesellschaft, Ludwigshafen, Germany (in phosphate-buffered saline, pH 7.2)) or the specified dose of Compound III-3 in the vehicle was applied directly onto the vascularized chorioallantoic membrane-once daily from E6 to E9 as described in Oppenheim, et al., Science, 1991, 251, 1616-1617, which is incorporated herein by reference in its entirety). Embryos were sacrificed at E10 and their spinal cords were removed, fixed in Carnoy's solution (10% glacial acetic acid, 60% absolute ethanol, 30% chloroform), processed for serial paraffin sections, and stained with thionin. Every 20th section of lumbar segments 1-8 was counted according to previously described criteria (Clarke, et al., Methods In Cell Biology: Cell Death, 1995, Schwart & Osborne, Eds., Academic Press, New York, pp.277-321, which is incorporated herein by reference in its entirety).

Experiment [3] concerns dorsal root ganglion sensory neurons (DRG). The experiment is described as follows: Survival of chick embryonic dorsal root ganglion sensory neurons. It counts as cell-based. Here is the method:
as §1, §2

The subject of a further experiment is TNF-α. The experiment can be described thus: Induction of TNF-α by LPS in THP-1 cells (ELISA). It counts as cell-based. Conditions: Homo sapiens. How it is done:
(§3) THP-1 cells were grown in RPMI 1640 medium supplemented with 10% fetal bovine serum. LPS (E.coli serotype 0111.B4, TCA extracted) was purchased from Sigma and dissolved in PBS. ELISA kits for assaying IL-1 and TNF-α were purchased from Boerhinger-Mannheim and assays on THP-1 culture medium were performed as directed by the manufacturer. Standard curves according to directions were obtained with each assay.
(§4) Experiments were performed in 12 well culture plates with either 1 or 2 ml of THP-1 cells at 4 X 10^5 cells/ml. IL-1 and TNF-α were induced by the addition of LPS to the culture medium and the medium collected at various times thereafter for cytokine assay. Cells were removed by centrifugation and the supernatants frozen at -70°C until assay. To minimize costs experiments were performed in duplicate cultures and the duplicate supernatants were pooled after centrifugation. Each pooled supernatant was assayed in duplicate. Stock solutions of indolo- and fused pyrrolocarbazoles in 100% DMSO were diluted to the desired concentrations in either medium containing 10% fetal bovine serum or in medium containing 0.5 mg/ml BSA. Unless otherwise stated, compounds were added to the THP-1 cells 1 hr prior to the addition of LPS.

In another experiment the test system is IL-1. The experiment is described as follows: Induction of IL-1 by LPS in THP-1 cells (ELISA). It counts as cell-based. Here is the method:
as §3, §4

Consider one compound from EP1105728B1, “MODULATING MULTIPLE LINEAGE KINASE PROTEINS” (CEPHALON, INC., priority 1998, dated 2000).

Where two headings read alike, the source gives them in different places. A value given as a limit tells only on which side of the number the result lay.

Chain of trkA tyrosine kinase (P04629 33-796): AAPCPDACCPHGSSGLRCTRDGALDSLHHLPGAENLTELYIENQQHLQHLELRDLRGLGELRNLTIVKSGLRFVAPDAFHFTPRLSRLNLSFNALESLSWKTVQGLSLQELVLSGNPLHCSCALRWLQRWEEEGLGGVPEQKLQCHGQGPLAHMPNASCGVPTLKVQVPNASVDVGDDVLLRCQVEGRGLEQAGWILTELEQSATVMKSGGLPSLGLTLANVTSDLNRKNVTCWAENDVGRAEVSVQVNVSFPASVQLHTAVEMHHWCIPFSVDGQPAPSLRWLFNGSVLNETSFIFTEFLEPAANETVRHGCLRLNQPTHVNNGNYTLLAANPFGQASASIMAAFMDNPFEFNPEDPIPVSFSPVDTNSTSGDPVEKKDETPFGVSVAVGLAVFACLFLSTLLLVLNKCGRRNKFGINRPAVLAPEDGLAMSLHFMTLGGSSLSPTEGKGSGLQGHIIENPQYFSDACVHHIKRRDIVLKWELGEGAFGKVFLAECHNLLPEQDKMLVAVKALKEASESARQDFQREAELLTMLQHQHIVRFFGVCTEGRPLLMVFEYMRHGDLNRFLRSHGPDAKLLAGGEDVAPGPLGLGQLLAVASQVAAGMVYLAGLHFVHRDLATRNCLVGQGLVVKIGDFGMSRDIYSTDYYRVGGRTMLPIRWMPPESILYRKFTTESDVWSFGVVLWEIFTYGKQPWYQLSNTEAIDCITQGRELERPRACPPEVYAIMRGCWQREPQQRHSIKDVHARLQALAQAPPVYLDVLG
T1 sequence (Q13233 whole entry, species assumed): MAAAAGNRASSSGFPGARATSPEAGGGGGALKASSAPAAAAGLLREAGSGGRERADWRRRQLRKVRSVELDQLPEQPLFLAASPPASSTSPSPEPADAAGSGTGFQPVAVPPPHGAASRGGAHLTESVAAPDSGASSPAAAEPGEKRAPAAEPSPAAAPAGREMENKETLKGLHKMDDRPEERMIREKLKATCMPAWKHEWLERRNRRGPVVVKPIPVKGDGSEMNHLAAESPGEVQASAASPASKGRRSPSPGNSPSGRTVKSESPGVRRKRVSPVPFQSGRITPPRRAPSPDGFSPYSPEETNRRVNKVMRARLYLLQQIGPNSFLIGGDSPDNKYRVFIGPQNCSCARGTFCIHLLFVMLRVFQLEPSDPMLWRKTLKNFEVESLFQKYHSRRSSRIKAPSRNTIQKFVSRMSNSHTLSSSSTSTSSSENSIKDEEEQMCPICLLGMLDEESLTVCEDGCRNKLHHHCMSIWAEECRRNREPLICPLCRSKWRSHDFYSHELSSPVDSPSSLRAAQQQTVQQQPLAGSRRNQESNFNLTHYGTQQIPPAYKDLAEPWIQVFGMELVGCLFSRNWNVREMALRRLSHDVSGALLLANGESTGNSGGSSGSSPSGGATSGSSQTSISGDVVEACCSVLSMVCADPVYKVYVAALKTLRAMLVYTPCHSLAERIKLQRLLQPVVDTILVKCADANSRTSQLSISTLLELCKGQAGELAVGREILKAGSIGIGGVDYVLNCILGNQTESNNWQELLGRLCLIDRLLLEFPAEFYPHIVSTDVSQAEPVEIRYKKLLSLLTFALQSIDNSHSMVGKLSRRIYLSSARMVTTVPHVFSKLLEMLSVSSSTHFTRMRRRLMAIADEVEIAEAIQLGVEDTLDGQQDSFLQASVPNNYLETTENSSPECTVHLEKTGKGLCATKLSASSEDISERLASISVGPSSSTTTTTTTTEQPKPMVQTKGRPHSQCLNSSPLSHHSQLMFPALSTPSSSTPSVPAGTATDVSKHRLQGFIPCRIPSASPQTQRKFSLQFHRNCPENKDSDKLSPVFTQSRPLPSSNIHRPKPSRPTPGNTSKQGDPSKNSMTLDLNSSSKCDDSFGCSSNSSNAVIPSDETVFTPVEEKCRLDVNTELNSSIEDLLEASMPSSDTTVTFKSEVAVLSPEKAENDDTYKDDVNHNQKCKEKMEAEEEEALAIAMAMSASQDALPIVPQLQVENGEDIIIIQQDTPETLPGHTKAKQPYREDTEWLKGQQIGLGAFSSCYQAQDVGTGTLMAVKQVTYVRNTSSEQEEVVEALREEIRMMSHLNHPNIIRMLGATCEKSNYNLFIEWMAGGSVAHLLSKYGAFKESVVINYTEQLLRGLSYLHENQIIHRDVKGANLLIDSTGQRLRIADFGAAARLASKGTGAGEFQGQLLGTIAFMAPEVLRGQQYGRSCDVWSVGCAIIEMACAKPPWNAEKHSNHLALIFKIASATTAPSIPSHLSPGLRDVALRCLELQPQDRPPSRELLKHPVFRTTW

`CCSCc1ccc2c(c1)c1c3c(c4c5cc(CSCC)ccc5n5c4c1n2C1CC(O)(C(=O)OC)C5(C)O1)CNC3=O` (centres unmarked) [III-3]: the “inhibitory activity against trkA tyrosine kinase” value on trkA tyrosine kinase is “did not exhibit inhibitory activity”. The “concentration at which the survival effect reached a plateau” value in experiment [1] (10% serum (Fig. 16)) and in experiment [3] (10% serum (Fig. 16)) was “around 1 µM” throughout. Moreover, in [1] (after 24 h, CNTF 10 ng/ml, 10% serum), the “survival of CNTF-dependent ciliary ganglion (CG) neurons” value is 76%. This compound returned a CG survival in experiment [1] (after four days) of 58%. The inhibition at 0.5 µM in the experiment on IL-2 (Jurkat, 500 nM, 1 hr treatment prior to induction (Fig. 23B)) was > 80%. The concentration for half-maximal inhibition (IC50) in the experiment with IL-2 (Jurkat cells (Fig. 23C)) was 139 nM; in the experiment with TNF-α (THP-1, LPS 2 µg/ml, serum-free medium, read-out: THP-1 Cells TNF-α IC50), 29 nM; in the experiment with TNF-α (THP-1 cells, medium containing 10% fetal bovine serum, read-out: IC50 inhibition of the induction of TNF-α), 139 nM; in the experiment with IL-1 (Homo sapiens, THP-1, THP-1 cells, medium containing 10% fetal bovine serum, read-out: IC50 inhibition of the induction of IL-1), 267 nM; in the experiment with IL-1 (Homo sapiens, THP-1, THP-1 cells, serum-free medium (500 µg/ml BSA), cytokine not named, read-out: IC50 in serum-free medium), 23 nM; in the experiment with IL-1 (THP-1 cells, medium containing 10% fetal bovine serum, read-out: IC50 inhibition of the induction of IL-1) it was 269 nM. Further, the “neurite outgrowth from intact dorsal root ganglia” value in experiment [2] was “Neurites grew”. The “JNK pathway activated by MEKK1” value at MEKK1 is “did not interfere with the JNK pathway”. This compound also showed a motor neurons rescued with lumbar motor neurons (1.2 and 1.8 µg/day onto the chorioallantoic membrane) of 25%. Besides, in the experiment with lumbar motor neurons (2.3 and 7 µg/day onto the chorioallantoic membrane), the “motor neurons that would normally die rescued” value is given as “Forty”. Besides, the DRG survival in experiment [3] (after four days) turned out to be 52%.
